Consider 13 compounds from patent US5696263A, “Antiviral acyclic phosphonomethoxyalkylsubstituted alkenyl and alkynyl purine and pyrimidine derivatives” (Institute of Organic Chemistry and Biochemistry of the …, priority 1994, dated 1997).

Data set [1] has as its system human immunodeficiency virus LA BRU strain. Description: XTT assay, anti-HIV activity with LAV BRU strain. The data set is classed as cell-based. Conditions: HIV LAV BRU strain (footnote e), read-out: ED50 (the source's name). The method, then: (§1) Compounds were evaluated for activity against human immunodeficiency virus (HIV RF strain obtained from Luc Montagnier, Institut Pasteur, Paris, France) in CEM-SS cells (P. L. Nara, et al., in AIDS Res. Human. Retroviruses, 1987, 3, 283-302) using the XTT assay described by O. S. Weislow, et al., in J. Natl. Cancer Instit., 1989, 81, 577-586. CEM-SS cells were obtained from Owen Weislow at the National Cancer Institute. Cells were exposed to HIV and cultured in microtiter plates in the presence of test compounds at concentrations of 0.32, 1, 3.16, 10, 31.6, 100, 316 and 1000 um. On day six post-infection, the antiviral effect was measured using the XTT assay in which an optical density (OD) reading is obtained at each drug concentration. The optical density reading is proportional to the number of viable cells. The relative optical density values were derived by dividing the sample observed optical density by the value obtained for the control. Assays run in infected cells show the antiviral effect of the test compounds, where an increase in the number of viable cells (higher OD reading) reflects the protective, antiviral activity of the compound. Assays run in uninfected cells provide a measure of cellular toxicity.
(§2) The antiviral effect is also expressed (see Table 1) as the concentration of compound which increases the number of viable cells in infected cultures to 50%, to that of the untreated, uninfected control cultures (ED50). The cellular toxicity is expressed as the concentration of compound which reduces the number of viable cells to 50%, to that of the untreated control (TD50). The selectivity index (SI) is the ratio of TD50 to ED50.
(§3) ^a Effective Dose 50: In infected cells, concentration of compound
(§4) which results in an increase in the number of viable cells to 50% to that
^e The compounds were evaluated using human immunodeficiency virus LA
BRU strain obtained from Luc Montagnier, Institut Pasteur, Paris, France.
(In general: Tetrazolium dyes change colour on reduction, which living cells bring about.)

The test system of data set [2] is CEM-SS cells. Description: XTT assay, cellular toxicity in uninfected CEM-SS cells. The data set is classed as cell-based. Conditions: compounds evaluated with HIV LAV BRU strain (footnote e), 8640 min, read-out: TD50 (the source's name).
In data set [3] the test system is human immunodeficiency virus (HIV RF strain) in CEM-SS cells. Description: XTT assay, anti-HIV RF activity in infected CEM-SS cells, six days post infection. The data set is classed as cell-based. Conditions: for SI (Selectivity Index: Ratio of TD50 to ED50): HIV RF; for SI (Selectivity Index: Ratio of TD50 to ED50) / pEC50: CEM-SS cells; for pEC50: Human immunodeficiency virus 1, CEM-SS, 144 h, HIV RF strain, XTT assay, six days post infection, read-out: ED50 (the source's name); for anti-HIV potency and selectivity as compared to the other compounds: data in Table 1; for cell protection against HIV: over a broad concentration range. On the procedure: as §1, §2
(§5) The anti-HIV activity and cellular toxicity of the test compounds are plotted in FIGS. 1-7 as a function of relative optical density versus increasing log concentrations of the test compounds (XTT assay). FIGS. 1-7 visually show the results of the relative anti-HIV activity of the test compounds on infected cells (--.circle-solid.--) and the cellular toxicity of the same test compound on uninfected cells (--.rect-solid.--).
Another estimate of the effectiveness of a compound for use against HIV in the prevention and/or treatment of AIDS is a selectivity index (an in vitro "therapeutic index"), the ratio of the toxic dose 50 to the effective dose 50. The selectivity index (SI) for (RS), (R)- and (S)-2'-vinyl-PMEG and (RS), (R), (S), -2'-azidomethyl-PMEG of the instant invention and for the comparison compound PMEG are shown in Table 1.
Anti-HIV RF Activity in CEM-Cells Evaluated by XTT Assay
Six Days Post Infection
as §3, §4
^c Selectivity Index: Ratio of TD50 to ED50.

The nature of data set [4]: XTT assay, cellular toxicity in uninfected CEM-SS cells. The class given is cell-based. The settings on record: human, cem-ss cells. On the procedure:
as §1, §2, §5
(§6) ^b Toxic Dose 50: In uninfected cells, concentration of compound whic
(§7) results in a 50% decrease of viable cells.

In data set [5] the test system is CEM-SS cells. The description is as above. The class given is cell-based. On the procedure: as §1, §2, §5, §6, §7
Data set [6] in a line: cell growth inhibition assay in CEM-SS cells. The class given is cell-based. The settings on record: human, cem-ss cells; 50 percent decrease in cell count vs control at day three (72 hours). On the procedure: (§8) The cytotoxicity of PMEG, (R)2'-vinyl-PMEG, (S)-2'-vinyl-PMEG and (R)-2'-azidomethyl-PMEG was also determined by the cell growth inhibition assay in CEM-SS cells.
(§9) *CC50 is the concentration of drug that causes a 50 percent decrease in
(§10) cell count as compared to the control at day three (72 hours).
(§11) 1. Choose proper range of the concentrations of the drug to be evaluated.
(§12) 2. Prepare the stock solutions of drugs in RPMI 1640 medium at 10× of the highest concentration needed in cell culture
(§13) 3. Make serial dilution of the 10× stock solutions with RPMI 1640 as needed, usually four different concentrations are used for each drug.
(§14) 4. Prepare CEM cell suspension at @5×10^4 cells/ml concentration
(§15) 5. To each 18 ml CEM cell suspension add 2 ml of properly diluted drug solution (from step 2 and 3) separately and mix well.
(§16) 6. For cell control, 2 ml of RPMI 1640 is added in place of the drug solutions.
(§17) 7. Two ml of the solutions from step 5 and 6 are dispensed in to the wells of 24-well plate as shown in the following diagram [drawing 14] 8. At time zero, cells in 4 wells from the control (no drug added) are counted
(§18) 9. At 24, 48, 72 and 96 hr post drug addition, both drug treated and control cells are counted
(§19) 10. All assay are done in duplicate, two 24-well plates are set up for each drug
(§20) 11. Cell counts obtained from drug treated cultures are compared to those from control cultures.
(§21) 12. The concentration of drug that causes a 50 percent of decrease of cell number as compared to the control at day three (72 hr) is assigned as the CC50 value of the drug.

The subject of data set [7] is CEM-SS cells. Description: cell growth inhibition assay in CEM-SS cells. Conditions: values of Table 2. The data set is classed as cell-based. On the procedure:
as §8, §9, §10, §11, §12, §13, §14, §15, §16, §17, §18, §19, §20, §21

The subject of a further data set is Moloney sarcoma virus. Conditions: experimental animals; cited from earlier work.
A further data set has as its system murine leukemia virus. The settings on record: experimental animals; cited from earlier work.
Data set [8] relates to simian immunodeficiency virus (SIV). Conditions: experimental animals; cited from earlier work.
For another data set, the system named is HIV. The settings on record: in tissue cultures; cited from earlier work.
Data set [9] has as its system human immunodeficiency virus HTLVIIIB strain and MT2 cells. Description: anti-HIV activity, HTLVIIIB strain in MT2 cells (Southern Research Institute). The class given is cell-based. The settings on record: Southern Research Institute (footnote g), read-out: ED50 (the source's name). On the procedure:
as §3, §4
(§22) ^g The compound was evaluated by Southern Research Institute using
(§23) human immunodeficiency virus HTLVIIIB strain and MT2 cells (S. Harada, et

The test system of another data set is MT2 cells. Briefly: cellular toxicity in uninfected MT2 cells (Southern Research Institute). The class given is cell-based. Conditions: Southern Research Institute (footnote g), read-out: TD50 (the source's name). The method, then: as §6, §7, §22, §23

pEC50: −log10 of the molar value. Like-named read-outs stand apart in the source and are kept apart here.

As to `[N-]=[N+]=NCC[C@@H](Cn1ccc(N)nc1=O)OCP(=O)(O)O` [(S)-2'-azidoethyl-PMEC, (S)-9-[4-azido-2-(phosphonomethoxy)butyl]cytosine], in data set [1] (8640 min), the pEC50 is less than 3.30. In addition, in the data set on CEM-SS cells [2], the CC50 was greater than 500 µM.

`[N-]=[N+]=NC[C@H](Cn1ccc(N)nc1=O)OCP(=O)(O)O` [(S)-2'-azidomethyl-PMEC, (S)-9-[3-azido-2-(phosphonomethoxy)propyl]cytosine]: the pEC50 in data set [1] (8640 min) was less than 3.30. In addition, in the data set with CEM-SS cells [2], the CC50 was greater than 500 µM.

As for `[N-]=[N+]=NC[C@@H](Cn1cnc2c(O)nc(N)nc21)OCP(=O)(O)O` [(R)-2'-azidomethyl-PMEG, (R)-9-[3-azido-2-(phosphonomethoxy)propyl]guanine], in [3], the “SI (Selectivity Index: Ratio of TD50 to ED50)” value is listed as greater than 200; the pEC50 was 5.30; the “anti-HIV potency and selectivity as compared to the other compounds” value was “potent and selective anti-HIV agents”; the “cell protection against HIV” value is recorded as “cell protection against HIV over a broad concentration”. Also, the CC50 at 144 h in data set [4] is greater than 1 mM. Also, in the data set on CEM-SS cells [5], the observable cytotoxicity result was “no observable cytotoxicity”. The compound also returned a CC50 at 72 h in data set [6] of 1.4 mM. The “toxicity in CEM-SS cells when compared to PMEG” value (“toxicity … compared to PMEG” below) with CEM-SS cells [7] is listed as “relatively non-toxic”.

On to `C=C[C@@H](Cn1ccc(N)nc1=O)OCP(=O)(O)O` [(S)-2'-vinyl-PMEC, (S)-9-[2-(phosphonomethoxy)-3-butenyl]cytosine], for which the pEC50 in data set [1] (8640 min) was less than 3.30. Further, the CC50 in the data set with CEM-SS cells [2] was greater than 500 µM.

With `[N-]=[N+]=NC[C@H](Cn1cnc2c(=O)[nH]c(N)nc21)OCP(=O)(O)O` [(S)-2'-azidomethyl-PMEG, (S)-9-[3-azido-2-(phosphonomethoxy)propyl]guanine], in data set [3], the “SI (Selectivity Index: Ratio of TD50 to ED50)” value was greater than 20 and the pEC50 is 4.29. Further, the CC50 at 144 h in data set [4] was greater than 1 mM.

With `C=CC(Cn1cnc2c(=O)[nH]c(N)nc21)OCP(=O)(O)O` (racemic) [(R,S)-2'vinyl-PMEG, (RS)-9-[2-(phosphonomethoxy)-3-butenyl]guanine], in [3], the “SI (Selectivity Index: Ratio of TD50 to ED50)” value was greater than 51 and the pEC50 was 4.71. The CC50 at 144 h in data set [4] is greater than 1 mM.

On to `[N-]=[N+]=NCC(Cn1cnc2c(=O)[nH]c(N)nc21)OCP(=O)(O)O` (racemic) [(R,S)-2'-azidomethyl-PMEG, (RS)-9-[3-azido-2-(phosphonomethoxy)propyl]guanine], for which, in data set [3], the “SI (Selectivity Index: Ratio of TD50 to ED50)” value is greater than 125 and the pEC50 is 5.10. This compound also registered a CC50 at 144 h in [4] greater than 1 mM.

For the compound `C=C[C@@H](Cn1cnc2c(O)nc(N)nc21)OCP(=O)(O)O` [(S)-2'-vinyl-PMEG, (S)-9-[2-(phosphonomethoxy)-3-butenyl]guanine], the “protection from HIV in CEM-SS cells” value in data set [3] (at 100 μM, FIG. 2) is recorded as “complete protection”. For the same compound, the CC50 at 72 h in data set [6] was found to be 1.6 mM. Besides, in the data set on CEM-SS cells [7], the “toxicity … compared to PMEG” value is “relatively non-toxic”.

Regarding `Nc1ncnc2c1ncn2CCOCP(=O)(O)O` [PMEA], the “effect on Moloney sarcoma virus” value in the data set on Moloney sarcoma virus is listed as “proven its effect”. Further, in the data set on murine leukemia virus, the “effect on murine leukemia virus” value is given as “proven its effect”. Besides, the “effect on simian immunodeficiency virus (SIV)” value in data set [8] is on record as “proven its effect”. In the data set with HIV, the “effect on HIV” value was “proven its effect”.

As for `Cc1cn(C[C@@H](CN=[N+]=[N-])OCP(=O)(O)O)c(=O)[nH]c1=O` [(S)-2'-azidomethyl-PMET, (S)-9-[3-azido-2-(phosphonomethoxy)propyl]thymine], in data set [9], the pEC50 is less than 3.30. The CC50 in the data set with MT2 cells was greater than 500 µM.

In the case of `[N-]=[N+]=NCC[C@@H](Cn1cnc2c(O)nc(N)nc21)OCP(=O)(O)O` [(S)-2'-azidoethyl-PMEG, (S)-9-[4-azido-2-(phosphonomethoxy)butyl]guanine], the CC50 at 144 h in data set [4] was greater than 0.5 mM. Further, the pEC50 in data set [1] (Human immunodeficiency virus 1, CEM-SS, 144 h) is less than 3.30.

On to `C=C[C@H](Cn1cnc2c(O)nc(N)nc21)OCP(=O)(O)O` [(R)-2'-vinyl-PMEG, (R)-9-[2-(phosphonomethoxy)-3-butenyl]guanine], for which the “protection from the human immunodeficiency virus in CEM-SS cells” value in data set [3] (concentration range of 5 to 100 μM, FIG. 1) is on record as “complete protection”. Further, in [3], the “anti-HIV potency and selectivity as compared to the other compounds” value is “potent and selective anti-HIV agents”; the “cell protection against HIV” value is “cell protection against HIV over a broad concentration”. In [4], the CC50 at 144 h is greater than 1 mM. Further, the observable cytotoxicity entry in the data set on CEM-SS cells [5] was “no observable cytotoxicity”. In addition, in data set [6], the CC50 at 72 h was found to be 1.6 mM. In the data set on CEM-SS cells [7], the “toxicity … compared to PMEG” value is on record as “relatively non-toxic”.

As for `Nc1nc2c(ncn2CCOCP(=O)(O)O)c(=O)[nH]1` [PMEG, 9-[2-(phosphonomethoxy)ethyl]guanine, reference compound], the “anti-HIV effect in CEM-SS cells” value in data set [3] (FIG. 7) is “some anti-HIV effect”. Besides, in data set [3], the “SI (Selectivity Index: Ratio of TD50 to ED50)” value is listed as 30 and the pEC50 was 6.70. In data set [4], this compound yielded a CC50 at 144 h of 0.015 mM. In addition, the cellular toxicity entry in the data set with CEM-SS cells [5] is “cellular toxicity of PMEG prevents protection from the virus”. Moreover, the CC50 at 72 h in data set [6] stood at 0.0024 mM.
